Results: US20240091218A1, “METHODS OF TREATING PROSTATE CANCER USING EXICORILANT AND ENZALUTAMIDE” (Corcept Therapeutics Incorporated, priority 2022, published 2024)
“And” between values parts separate entries of the source, which are not always exact repeats. Identical values can stand only once. “Also recorded” adds a separate entry of the source. Like-named read-outs stand apart in the source and are kept apart here.

Columns and labels:
[1] = male, human, in vivo
GR target genes (CDKN1C) = test: GR target gene expression in blood (NanoString)
[2] = system: 22Rv1 prostate cancer xenografts; test: mouse 22Rv1 prostate cancer xenografts; type: in vivo; conditions: 21 days
Excerpt: Left: N=10 mice/group. Castration performed 5 days after inoculation with 22Rv1 tumor cells; exicorilant treatment initiated on day 6 for 21 days. Right: N=10 mice/group. Castration performed 3 days before implantation of 22Rv1 tumor cells; exicorilant treatment initiated on day 7 for 21 days.

[3] = Excerpt: The present study was an investigation of the safety and efficacy of exicorilant when administered in combination with enzalutamide in the treatment of patients suffering from metastatic castration-resistant prostate cancer (mCRPC). […] Patients with histologically confirmed prostate cancer, who had received at least two prior regimens of cytotoxic chemotherapy, were eligible for this study.
Patients in Segment 1 of the study received exicorilant twice daily under fasted conditions. This segment of the study was performed with a standard ‘3+3’ design, including one cohort with an enzalutamide alone lead-in. Enzalutamide was administered once daily.
Patients in Segment 2 of the study received exicorilant once daily under fed conditions. This segment of the study was a double-blind study, in which patients were randomized 3:1 to exicorilant titration (starting at 240 mg, titrated to 280 mg followed by 320 mg every 2 weeks as tolerated starting Cycle 1 Day 16) or to stay on exicorilant 240 mg+placebo. Enzalutamide was administered once daily.
Treatment emergent adverse events (TEAEs) and dose-limiting toxicity events (DLTs) were evaluated for the patients in Segment 2.
Dose-limiting toxicities (DLTs) were recorded from first dose of exicorilant through Cycle 3 and were defined as considered possibly or probably related to study drug by the investigator.

cortisol, ACTH = test: serum cortisol, ACTH and 24-h urinary free cortisol in patients; type: in vivo, human; conditions: for serum cortisol and ACTH levels: patients receiving exicorilant and enzalutamide
Description: Data from Segment 2 subjects whose exicorilant doses were escalated to the doses indicated on the horizontal axis. The 24-h UFC reference range was 10-100 μg/day. The 24-h UFC value for C1D1 (cycle 1, day 1) indicates the initial 24-h UFC levels.
Consistent with prior studies of exicorilant and other SGRMs, morning serum cortisol and ACTH levels were not affected in the safety population or patients who escalated to 320 mg exicorilant. […] The grey band indicates the baseline mean±SD. End of treatment: n=9; cycle 9 day 1: n=3; cycle 6 day 1: n=8; cycle 3 day 1: n=14; cycle 2 day 1: n=13; baseline: n=20.

[4] = system: metastatic castration-resistant prostate cancer (mCRPC)
Description: Patients received either exicorilant 180 mg twice daily (BID)+enzalutamide 160 mg once daily (QD), or exicorilant 140 mg BID+enzalutamide 160 mg QD with a 28-day enzalutamide lead-in, or exicorilant 140 mg BID+enzalutamide 160 mg QD without an enzalutamide lead-in. Segment 2 enrolled patients who were on a stable dose of enzalutamide with rising PSA (25% increase over nadir and an absolute value >1 ng/mL) and evaluated QD dosing of exicorilant in a double-blind design. All segment 2 patients received exicorilant 240 mg QD+enzalutamide and were randomized 3:1 to titrate to exicorilant 280 mg or 320 mg or to receive placebo.
Segment 2 of the study was a double-blind, placebo-controlled study of patients with rising PSA; exicorilant was administered once-daily, at a dose that was phased-in (titrated in these patients from 240 mg/day, to 280 mg/ day, to 320 mg/day). […] Twenty five patients were enrolled and randomized in a ratio of 3:1 to arm A or to arm B. Exicorilant was administered to the patients once per day, with food; enzalutamide was administered at the dose that was currently tolerated and stable for each patient. Pharmacokinetic assessments of both exicorilant and enzalutamide were made on cycle 1, day 15 (C1D15), and two weeks after each dose escalation; pharmacokinetic assessments of exicorilant were made after each dose reduction (if any). Pharmacodynamic (PD) assessments were made on cycle 1, day 1 (C1D1), cycle 1, day 15 (C1D15), and two weeks after each dose escalation every three cycles from cycle 3, and upon exicorilant discontinuation or disease progression.
PSADT was calculated prior to the first dose of exicorilant (patients on enzalutamide alone), and after C1D1, C2D1, and C3D1 (where “C1D1” stands for cycle 1, day 1 of the combined treatment; “C2D1” stands for cycle 2, day 1 of the combined treatment; and “C3D1” stands for cycle 3, day 1 of the combined treatment).
The median duration of exposure to exicorilant was 9.7 weeks (range: 2-61). In the results shown in FIG. 8A, tumor response was assessed by Prostate Cancer Clinical Trials Working Group 3 (PCWG3) criteria, incorporating modified “Response Evaluation Criteria in Solid Tumors v1.1” (mRECIST v1.1) criteria. Imaging-based PFS was assessed by mRECIST v1.1, progression on bone lesions per PCWG3, or death.

human GR [5] = biological target: T1, human GR (Homo sapiens, UniProt P04150); test: human GR binding
T1 sequence (P04150 1-777): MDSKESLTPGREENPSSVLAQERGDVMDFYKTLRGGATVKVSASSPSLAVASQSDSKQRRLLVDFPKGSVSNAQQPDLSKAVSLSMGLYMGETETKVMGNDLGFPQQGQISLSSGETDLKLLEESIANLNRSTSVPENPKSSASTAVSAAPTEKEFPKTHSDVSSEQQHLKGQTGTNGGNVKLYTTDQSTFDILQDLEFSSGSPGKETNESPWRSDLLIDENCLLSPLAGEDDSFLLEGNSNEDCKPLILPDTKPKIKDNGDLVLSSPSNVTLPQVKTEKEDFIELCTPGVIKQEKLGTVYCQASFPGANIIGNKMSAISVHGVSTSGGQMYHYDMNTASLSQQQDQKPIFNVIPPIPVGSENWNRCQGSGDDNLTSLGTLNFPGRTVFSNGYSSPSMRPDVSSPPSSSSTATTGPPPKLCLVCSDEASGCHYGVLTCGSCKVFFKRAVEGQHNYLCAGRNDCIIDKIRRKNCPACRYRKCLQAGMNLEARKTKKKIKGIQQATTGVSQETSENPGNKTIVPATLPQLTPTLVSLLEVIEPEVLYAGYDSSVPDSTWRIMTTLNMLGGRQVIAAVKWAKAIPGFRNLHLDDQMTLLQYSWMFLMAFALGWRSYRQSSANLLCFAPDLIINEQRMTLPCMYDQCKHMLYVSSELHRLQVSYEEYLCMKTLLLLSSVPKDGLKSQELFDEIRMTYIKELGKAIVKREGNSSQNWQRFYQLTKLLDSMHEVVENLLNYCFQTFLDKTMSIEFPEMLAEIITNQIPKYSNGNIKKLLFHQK

human GR [6] = biological target: T1, human GR; test: human GR functional assays; type: cell-based
ER and AR = test: selectivity for GR relative to ER and AR
[7] = exicorilant pharmacokinetics in Segment 2 patients; type: in vivo, human; conditions: for AUC(0-t) / Cmax: male, human, in vivo, oral, once daily with food; for AUC(0-t): read-out: AUC0-24, geometric mean; for Cmax: read-out: Cmax, geometric mean
Excerpt: Exicorilant pharmacokinetics observed in the patients in Segment 2 are illustrated in FIG. 4A (data are shown as geometric mean plus geometric standard deviation), and tabulated in TABLE 6.

[8] = Segment 2 (n = 25), PCWG3 criteria
[9] = Arm A, EXI 240 mg + ENZA 160 mg (15 PK observations)
[10] = Arm A, EXI 280 mg + ENZA 160 mg (8 PK observations)
[11] = Arm A, EXI 320 mg + ENZA 160 mg (8 PK observations)
[12] = Arm B, EXI 240 mg + ENZA 160 mg (14 PK observations, combined)

CNC(=O)c1ccc(N2C(=S)N(c3ccc(C#N)c(C(F)(F)F)c3)C(=O)C2(C)C)cc1F [enzalutamide]
enzalutamide exposures in combination with exicorilant [1]: consistent with historical data for enzalutamide 160 mg alone | CDKN1C expression (GR target genes (CDKN1C); enzalutamide alone, Segment 1 lead-in): not affected

CNC(=O)c1ccc(N2C(=S)N(c3ccc(C#N)c(C(F)(F)F)c3)C(=O)C2(C)C)cc1F.Cn1ncc(S(=O)(=O)N2CC[C@H]3Cc4c(cnn4-c4ccc(F)cc4)C[C@]3(C(=O)c3cc(C(F)(F)F)ccn3)C2)n1 [exicorilant+enzalutamide]
tumor growth ([2]; exicorilant with enzalutamide vs enzalutamide alone, castrated mice, N=10/group): significantly reduced tumor growth | SAEs with a fatal outcome ([3]; Segment 2): No SAEs with a fatal outcome | grade 5 TEAEs ([3]; all patients): no grade 5 adverse events; also recorded: no grade 5 TEAEs | grade 4 TEAEs, number ([3]; human, in vivo): one | tolerated phase 2 regimen, exicorilant dose ([3]; once-daily, combined with 160 mg enzalutamide once daily, based on DLTs): 240 mg | dose-limiting events ([3]; segment 1, exicorilant BID fasted): Dose-limiting fatigue, musculoskeletal pain, and pancreatitis | serum cortisol and ACTH levels (cortisol, ACTH): neither ACTH nor cortisol levels are significantly elevated | PSA reductions at any time during treatment, % of patients ([4]; Segment 2): 56% | PSA reductions at any time during treatment, number of patients ([4]; Segment 2): 14 | patients with greater than 25% increase in PSADT ([4]; Segment 2): Two | PSA response (≥50% PSA reduction from baseline), number of patients ([4]; Segment 2 (n = 25)): 1 | reductions in PSA as compared to baseline, % of patients ([4]; Segment 2 (n = 25)): 15% and 16% | reductions in PSA as compared to baseline, number of patients ([4]; Segment 2 (n = 25)): 4 | radiographic / imaging-based tumor responses ([4]; Segment 2 (n = 25), PCWG3/mRECIST v1.1): no radiographic responses; also recorded: no imaging-based tumor responses | best overall response of stable disease, % of patients [4, 8]: 72% | best overall response of stable disease, number of patients [4, 8]: 18 | PSADT increased, % of patients ([4]; Segment 2, After C1D1 (n = 25)): 52% | PSADT increased, number of patients ([4]; Segment 2, After C1D1 (n = 25)): 13 | PSADT increased, % of patients ([4]; Segment 2, After C2D1 (n = 23)): 69.6% | PSADT increased, number of patients ([4]; Segment 2, After C2D1 (n = 23)): 16 | PSADT increased, % of patients ([4]; Segment 2, After C3D1 (n = 13)): 61.4% | PSADT increased, number of patients ([4]; Segment 2, After C3D1 (n = 13)): 8 | PSADT increase, % of patients ([4]; Segment 2 patients who received more than two cycles of the combined treatment): 61.5% | PSA declines by the second on-treatment PSA assessment, number of patients ([4]; of 14 patients with PSA reductions): 11 | PSA reduction from baseline in one patient ([4]; patient who received 320 mg exicorilant with 160 mg enzalutamide): 71.1% | PSA reduction from baseline in one patient ([4]; patient with 240 mg exicorilant + 160 mg enzalutamide): 36.7% | increases in PSA doubling time, % of patients ([4]; patients dosed daily under fed conditions): more than 50%

Cn1ncc(S(=O)(=O)N2CC[C@H]3Cc4c(cnn4-c4ccc(F)cc4)C[C@]3(C(=O)c3cc(C(F)(F)F)ccn3)C2)n1 [exicorilant, ((4aR,8aS)-1-(4-fluorophenyl)-6-((2-methyl-2H-1,2,3-triazol-4-yl)sulfonyl)-4,4a,5,6,7,8,8a,9-octahydro-1H-pyrazolo[3,4-g]isoquinolin-4a-yl)(4-(trifluoromethyl)pyridin-2-yl)methanone]
Ki (human GR [5]): < 1 nM | Ki (human GR [6]): < 15 nM | mode of action at GR (human GR [6]): competitive, reversible, full antagonist of GR | selectivity for GR (ER and AR): selectivity for GR relative to ER and AR | tumor growth ([2]; exicorilant with castration vs castration alone, N=10 mice/group): significantly reduced tumor growth | most frequently reported TEAE assessed as related to exicorilant ([3]; human, in vivo): fatigue | Exicorilant-related TEAE ALP increased, % of patients ([3]; male, human, in vivo): (12.0%) | Exicorilant-related TEAE ALP increased, number of patients ([3]; male, human, in vivo): 3 | Exicorilant-related TEAE Anemia, % of patients ([3]; male, human, in vivo): (16.0%) | Exicorilant-related TEAE Anemia, number of patients ([3]; male, human, in vivo): 4 | Exicorilant-related TEAE Constipation, % of patients ([3]; male, human, in vivo): (28.0%) | Exicorilant-related TEAE Constipation, number of patients ([3]; male, human, in vivo): 7 | Exicorilant-related TEAE Decreased appetite, % of patients ([3]; male, human, in vivo): (24.0%) | Exicorilant-related TEAE Decreased appetite, number of patients ([3]; male, human, in vivo): 6 | Exicorilant-related TEAE Lymphocyte count decreased, % of patients ([3]; male, human, in vivo): (12.0%) | Exicorilant-related TEAE Lymphocyte count decreased, number of patients ([3]; male, human, in vivo): 3 | Exicorilant-related TEAE Nausea, % of patients ([3]; male, human, in vivo): (20.0%) | Exicorilant-related TEAE Nausea, number of patients ([3]; male, human, in vivo): 5 | Exicorilant-related TEAE Pain in extremity, % of patients ([3]; male, human, in vivo): (20.0%) | Exicorilant-related TEAE Pain in extremity, number of patients ([3]; male, human, in vivo): 5 | Patients with any TEAE related to exicorilant, % ([3]; male, human, in vivo): (92.0%) | Patients with any TEAE related to exicorilant, number ([3]; male, human, in vivo): 23 | SAEs assessed as being related to exicorilant, number ([3]; male, human, in vivo): 1 | exicorilant-related AE back pain, % of patients ([3]; male, human, in vivo): 35% | exicorilant-related AE decreased appetite, % of patients ([3]; male, human, in vivo): 27% | exicorilant-related AE fatigue, % of patients ([3]; male, human, in vivo): 57% | exicorilant-related AE pain in extremity, % of patients ([3]; male, human, in vivo): 22% | exicorilant exposures across arms and dose levels ([7]; Segment 2, 240-320 mg): largely overlapping across arms and dose levels | AUC(0-t) [7, 9]: 366 µg·h/mL | Cmax [7, 9]: 17700 ng/mL | AUC(0-t) [7, 10]: 401 µg·h/mL | Cmax [7, 10]: 19600 ng/mL | AUC(0-t) [7, 11]: 428 µg·h/mL | Cmax [7, 11]: 19600 ng/mL | AUC(0-t) [7, 12]: 375 µg·h/mL | Cmax [7, 12]: 17200 ng/mL | 24-h urinary free cortisol (UFC) levels (cortisol, ACTH; Segment 2 subjects with escalated exicorilant doses): did not increase UFC levels | serum cortisol and ACTH levels (cortisol, ACTH): did not affect cortisol or ACTH levels; also recorded: not significantly altered; also recorded: no significant alterations | pharmacodynamic effects (gene expression), with food vs fasting (GR target genes (CDKN1C); 240-320 mg QD with food vs BID fasting (Segment 1)): larger when exicorilant was administered with food; also recorded: greater than those observed in fasted patients | modulation of GR target genes (GR target genes (CDKN1C); patients receiving exicorilant): confirmed modulation of GR target genes; also recorded: Modulation of GR target genes was observed
